Results: patent US10688093B2, “Methods, compositions, and uses of novel Fyn kinase inhibitors” (priority 2015, dated 2020)

Target: full-length recombinant human FYN A (Homo sapiens (Human), UniProt P06241)
Test: ADP-Glo Kinase Assay of FYN kinase inhibition
Type: biochemical
Settings: primary screen, initial compounds
Summary of the method: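 GST-tagged full-length FYN A (baculovirus, Sf9) at 3 pg preincubated 30 min RT with compound (10-point 3-fold series from 10 μM) in Tris pH 7.5/MgCl2 buffer. 12-mer tyrosine peptide plus 12.5 pmol ATP added, 90 min RT; ADP measured by ADP-Glo luminescence, IC50 from dose-response.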

full-length recombinant human FYN A, sequence (P06241 whole entry): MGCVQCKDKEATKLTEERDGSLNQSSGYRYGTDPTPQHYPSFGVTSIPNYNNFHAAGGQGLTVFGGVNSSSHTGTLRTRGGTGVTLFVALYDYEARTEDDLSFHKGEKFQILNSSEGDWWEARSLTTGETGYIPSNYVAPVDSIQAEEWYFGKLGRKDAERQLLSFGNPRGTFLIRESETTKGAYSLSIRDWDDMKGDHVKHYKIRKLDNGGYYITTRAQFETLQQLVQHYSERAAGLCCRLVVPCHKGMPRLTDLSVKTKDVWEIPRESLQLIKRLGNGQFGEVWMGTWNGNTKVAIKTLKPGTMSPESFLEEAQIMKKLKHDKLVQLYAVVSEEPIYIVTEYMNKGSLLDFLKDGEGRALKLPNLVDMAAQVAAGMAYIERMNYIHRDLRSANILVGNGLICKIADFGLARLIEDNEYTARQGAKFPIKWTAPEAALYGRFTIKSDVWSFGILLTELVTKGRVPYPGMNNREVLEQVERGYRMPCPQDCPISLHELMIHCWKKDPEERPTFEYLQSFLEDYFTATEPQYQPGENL

Structure (SMILES) | IC50 [nM]
Oc1ccc(-c2cnc3cnc(-c4ccc(Cl)cc4)cn23)cc1 [Compound 208, 4-[6-(4-chlorophenyl)imidazo[1,2-a]pyrazin-3-yl]phenol] | 6380
Oc1cccc(-c2cnc3cnc(-c4cccs4)cn23)c1 [Compound 209, 3-[6-(2-thienyl)imidazo [1,2-a]pyrazin-3-yl]phenol] | 2780
Oc1cccc(-c2cnc3cnc(-c4ccco4)cn23)c1 [Compound 211, 3-[6-(2-furyl)imidazo [1,2-a]pyrazin-3-yl]phenol] | 6110
OCc1ccc(-c2cn3c(-c4cccc(O)c4)cnc3cn2)cc1 [Compound 213, 3-[6-[4-(hydroxymethyl)phenyl]imidazo [1,2-a]pyrazin-3-yl]phenol] | 3360
Cn1cc(-c2cn3c(-c4cccc(O)c4)cnc3cn2)cn1 [Compound 214, 3-[6-(1-methylpyrazol-4-yl)imidazo[1,2-a]pyrazin-3-yl]phenol] | 2780
CN1CCN(c2ccc(-c3cn4c(-c5ccc(Oc6ccccc6)cc5)cnc4cn3)cn2)CC1 [Compound 216, 6-[6-(4-methylpiperazin-1-yl)-3-pyridyl]-3-(4-phenoxyphenyl) imidazo[1,2-a]pyrazine] | 2130
O=C(NCCO)c1ccc(-c2cn3c(-c4ccc(Oc5ccccc5)cc4)cnc3cn2)cc1 [Compound 219, N-(2-hydroxyethyl)-4-[3-(4-phenoxyphenyl)imidazo[1,2-a]pyrazin-6-yl]benzamide] | 623
CN(C)CCCNC(=O)c1ccc(-c2cn3c(-c4cccc(Cl)c4)cnc3cn2)cc1 [Compound 220, 4-[3-(3-chlorophenyl)imidazo[1,2-a]pyrazin-6-yl]-N-[3-(dimethylamino)propyl]benzamide] | 8430
CN(C)CCCNC(=O)c1ccc(-c2cn3c(-c4ccsc4)cnc3cn2)cc1 [Compound 222, N-[3-(dimethylamino)propyl]-4-[3-(3-thienyl)imidazo [1,2-a]pyrazin-6-yl]benzamide] | 3870
COc1ccc(-c2cnc3cnc(-c4ccc(N5CCN(C)CC5)cc4)cn23)cc1 [Compound 223, 3-(4-methoxyphenyl)-6-[4-(4-methyl-piperazin-1-yl)phenyl] imidazo[1,2-a]pyrazine] | 5250
O=C(NCCO)c1cccc(-c2cn3c(-c4ccsc4)cnc3cn2)c1 [Compound 224, N-(2-hydroxyethyl)-3-[3-(3-thienyl)imidazo [1,2-a]pyrazin-6-yl]benzamide] | 3670
CN1CCN(c2ccc(-c3cn4c(-c5ccsc5)cnc4cn3)cn2)CC1 [Compound 225, 6-[6-(4-methylpiperazin-1-yl)-3-pyridyl]-3-(3-thienyl)imidazo [1,2-a]pyrazine] | 7050
Nc1ccc(-c2cn3c(-c4ccsc4)cnc3cn2)cn1 [Compound 226, 5-[3-(3-thienyl)imidazo [1,2-a]pyrazin-6-yl]pyridin-2-amine] | 2460
c1cc(-c2cn3c(-c4ccsc4)cnc3cn2)cs1 [Compound 227, 3,6-bis(3-thienyl)imidazo [1,2-a]pyrazine] | 8470
CN1CCN(c2ccc(-c3cn4c(-c5cccc(O)c5)cnc4cn3)cn2)CC1 [Compound 230, 3-[6-[6-(4-methylpiperazin-1-yl)-3-pyridyl]imidazo [1,2-a]pyrazin-3-yl]phenol] | 3140
CN(C)CCCOc1ccc(-c2cn3c(-c4ccc5c(c4)OCO5)cnc3cn2)cn1 [Compound 231, 3-[[5-[3-(1,3-benzodioxol-5-yl)imidazo[1,2-a]pyrazin-6-yl]-2-pyridyl]oxy]-N,N-dimethyl-propan-1-amine] | 9850
CCOc1cccc(-c2cn3c(-c4cccc(O)c4)cnc3cn2)c1 [Compound 232, 3-[6-(3-ethoxyphenyl)imidazo[1,2-a]pyrazin-3-yl]phenol] | 6690
CN1CCN(c2ccc(-c3cn4c(-c5ccc6c(c5)OCO6)cnc4cn3)cc2)CC1 [Compound 233, 3-(1,3-benzodioxol-5-yl)-6-[4-(4-methylpiperazin-1-yl)phenyl] imidazo[1,2-a]pyrazine] | 7930
Oc1cccc(-c2cnc3cnc(-c4ccsc4)cn23)c1 [Compound 234, 3-[6-(3-thienyl)imidazo [1,2-a]pyrazin-3-yl]phenol] | 2520
CN(C)CCCNC(=O)c1ccc(-c2cn3c(-c4ccc(Cl)cc4)cnc3cn2)cc1 [Compound 236, 4-[3-(4-chlorophenyl)imidazo[1,2-a]pyrazin-6-yl]-N-[3-(dimethylamino)propyl]benzamide] | 4900
CN(C)CCNC(=O)c1ccc(-c2cn3c(-c4ccc5c(c4)OCO5)cnc3cn2)cc1 [Compound 237, 4-[3-(1,3-benzodioxol-5-yl)imidazo[1,2-a]pyrazin-6-yl]-N-(2-dimethyl-aminoethyl) benzamide] | 3800
Nc1ccc(-c2cn3c(-c4cccc(O)c4)cnc3cn2)cn1 [Compound 238, 3-[6-(6-amino-3-pyridyl)imidazo [1,2-a]pyrazin-3-yl]phenol] | 2890
CN(C)CCNC(=O)c1ccc(-c2cn3c(-c4ccc(Cl)cc4)cnc3cn2)cc1 [Compound 240, 4-[3-(4-chlorophenyl)imidazo[1,2-a]pyrazin-6-yl]-N-(2-dimethylamino-ethyl)benzamide] | 4160
Oc1cccc(-c2cnc3cnc(-c4ccc(NCCN5CCOCC5)nc4)cn23)c1 [Compound 241, 3-[6-[6-(2-morpholino-ethylamino)-3-pyridyl]imidazo [1,2-a]pyrazin-3-yl]phenol] | 2940
CN(C)CCCNC(=O)c1ccc(-c2cn3c(-c4ccc5c(c4)OCO5)cnc3cn2)cc1 [Compound 244, 4-[3-(1,3-benzodioxol-5-yl)imidazo[1,2-a]pyrazin-6-yl]-N-[3-(dimethylamino)propyl]benzamide] | 6030
CN1CCN(c2ccc(-c3cn4c(-c5ccccc5)cnc4cn3)cn2)CC1 [Compound 245, 6-[6-(4-methylpiperazin-1-yl)-3-pyridyl]-3-phenyl-imidazo[1,2-a]pyrazine] | 10900
CC(C)N1CCN(c2ccc(-c3cn4c(-c5cccc(O)c5)cnc4cn3)cc2)CC1 [Compound 246, 3-[6-[4-(4-isopropyl-piperazin-1-yl)phenyl]imidazo [1,2-a]pyrazin-3-yl]phenol] | 2610
Nc1ccc(-c2cn3c(-c4ccc5c(c4)OCO5)cnc3cn2)cn1 [Compound 247, 5-[3-(1,3-benzodioxol-5-yl)imidazo[1,2-a]pyrazin-6-yl]pyridin-2-amine] | 10200
CN1CCN(c2ccc(-c3cn4c(-c5ccc(O)cc5)cnc4cn3)cn2)CC1 [Compound 250, 4-[6-[6-(4-methylpiperazin-1-yl)-3-pyridyl]imidazo [1,2-a]pyrazin-3-yl]phenol] | 2210

Further lines, results first:

IC50 [nM] | Structure (SMILES)
1930 | Cn1cc(-c2cn3c(-c4ccc(Oc5ccccc5)cc4)cnc3cn2)cn1 [Compound 210, 6-(1-methylpyrazol-4-yl)-3-(4-phenoxyphenyl) imidazo[1,2-a]pyrazine]
1980 | COc1ccc(-c2cn3c(-c4ccc(O)cc4)cnc3cn2)cn1 [Compound 212, 4-[6-(6-methoxy-3-pyridyl)imidazo [1,2-a]pyrazin-3-yl]phenol]
1590 | Cn1cc(-c2cn3c(-c4ccc(O)cc4)cnc3cn2)cn1 [Compound 215, 4-[6-(1-methylpyrazol-4-yl)imidazo[1,2-a]pyrazin-3-yl]phenol]
1480 | O=C(NCCO)c1cccc(-c2cn3c(-c4ccc(Oc5ccccc5)cc4)cnc3cn2)c1 [Compound 217, N-(2-hydroxyethyl)-3-[3-(4-phenoxyphenyl)imidazo[1,2-a]pyrazin-6-yl]benzamide]
165 | CN(C)CCNC(=O)c1ccc(-c2cn3c(-c4ccc(Oc5ccccc5)cc4)cnc3cn2)cc1 [Compound 218, N-(2-dimethylamino-ethyl)-4-[3-(4-phenoxyphenyl)imidazo[1,2-a]pyrazin-6-yl]benzamide]
1720 | Nc1ccc(-c2cn3c(-c4ccc(Oc5ccccc5)cc4)cnc3cn2)cn1 [Compound 221, 5-[3-(4-phenoxyphenyl)imidazo[1,2-a]pyrazin-6-yl]pyridin-2-amine]
1900 | CN(C)CCNC(=O)c1ccc(-c2cn3c(-c4ccsc4)cnc3cn2)cc1 [Compound 228, N-(2-dimethylamino-ethyl)-4-[3-(3-thienyl)imidazo [1,2-a]pyrazin-6-yl]benzamide]
1820 | Cn1cc(-c2cnc3cnc(-c4ccccc4Oc4ccccc4)cn23)cn1 [Compound 229, 3-(1-methylpyrazol-4-yl)-6-(2-phenoxyphenyl) imidazo[1,2-a]pyrazine]
1590 | CN1CCN(c2ccc(-c3cn4c(-c5cccc(O)c5)cnc4cn3)cc2)CC1 [Compound 235, 3-[6-[4-(4-methyl-piperazin-1-yl)phenyl]imidazo [1,2-a]pyrazin-3-yl]phenol]
812 | CN(C)CCNC(=O)c1ccc(-c2cn3c(-c4cccc(O)c4)cnc3cn2)cc1 [Compound 239, N-(2-dimethylamino-ethyl)-4-[3-(3-hydroxyphenyl)imidazo[1,2-a]pyrazin-6-yl]benzamide]
1610 | CN(C)CCCNC(=O)c1ccc(-c2cn3c(-c4cccc(O)c4)cnc3cn2)cc1 [Compound 242, N-[3-(dimethylamino)propyl]-4-[3-(3-hydroxyphenyl)imidazo[1,2-a]pyrazin-6-yl]benzamide]
1720 | O=C(NCCO)c1ccc(-c2cn3c(-c4cccc(O)c4)cnc3cn2)cc1 [Compound 243, N-(2-hydroxyethyl)-4-[3-(3-hydroxyphenyl)imidazo[1,2-a]pyrazin-6-yl]benzamide]
1320 | CN(C)CCCOc1ccc(-c2cn3c(-c4ccc(O)cc4)cnc3cn2)cn1 [Compound 248, 4-[6-[6-[3-(dimethylamino)propoxy]-3-pyridyl]imidazo [1,2-a]pyrazin-3-yl]phenol]
1310 | Oc1ccc(-c2cnc3cnc(-c4ccc(NCCN5CCOCC5)nc4)cn23)cc1 [Compound 249, 4-[6-[6-(2-morpholino-ethylamino)-3-pyridyl]imidazo [1,2-a]pyrazin-3-yl]phenol]
